Measured values from US11332473B2, “Substituted pyrazolo[3,4-d]pyrimidines as Wee1 inhibitors” (NUVATION BIO INC., priority 2019, dated 2022).
pIC50: −log10 of the molar value.

Legend:
A427 cells = assay: Cytotoxicity assay in A427 cell line (resazurin); type: cell-based; conditions: Homo sapiens, A-427; A427 lung epithelial cell line, 72 hr, inhibition of proliferation
Procedure: A427 (HTB-53; ATCC), a lung epithelial cell line, was seeded in medium (MEM, 41090101; Gibco) at a cell count of 1500 cells per 100 μL per well in a 96 well edge plate (167425; ThermoFisher). Cells were allowed to grow at 37° C. for 24 hr in 5% CO2 environment (culture conditions) in a Nuaire incubator (humidified). Serially diluted test compounds (100 μL) within the desired testing concentration ranges were added to the culture plate and the cells were further incubated in culture conditions for 72 hr. The experiment was terminated at the designated incubation time by replacing the medium with 100 μL of 1 mM of resazurin (R7017; Sigma) prepared in culture medium, and the plates were further incubated in culture conditions for 4-6 hr. Fluorescence was recorded using a multimodal plate reader (Biotek Synergy Neo) at an excitation wavelength of 535 nm and emission wavelength of 590 nm to obtain relative fluorescence units. Data were analysed as follows: the background fluorescence (blank containing only medium) value was subtracted from each reading and normalized with the vehicle control (DMSO treated cells) to obtain percent survival/proliferation. Percent survival was subtracted from 100 to get the percent inhibition of proliferation which was used to calculate IC50 values. Potency of compounds in other cell lines (such as A549, AsPc-1, Panc 10.05, A172, U-87MG) may be determined in an analogous manner.

PKMYT1 kinase = PKMYT1 kinase (Homo sapiens (Human), UniProt Q99640); assay: PKMYT1 IC50 determination, HotSpot Kinase Assay; type: biochemical; conditions: 10 μM ATP, 33P-ATP, Myelin Basic Protein substrate
PKMYT1 kinase, sequence (Q99640 whole entry): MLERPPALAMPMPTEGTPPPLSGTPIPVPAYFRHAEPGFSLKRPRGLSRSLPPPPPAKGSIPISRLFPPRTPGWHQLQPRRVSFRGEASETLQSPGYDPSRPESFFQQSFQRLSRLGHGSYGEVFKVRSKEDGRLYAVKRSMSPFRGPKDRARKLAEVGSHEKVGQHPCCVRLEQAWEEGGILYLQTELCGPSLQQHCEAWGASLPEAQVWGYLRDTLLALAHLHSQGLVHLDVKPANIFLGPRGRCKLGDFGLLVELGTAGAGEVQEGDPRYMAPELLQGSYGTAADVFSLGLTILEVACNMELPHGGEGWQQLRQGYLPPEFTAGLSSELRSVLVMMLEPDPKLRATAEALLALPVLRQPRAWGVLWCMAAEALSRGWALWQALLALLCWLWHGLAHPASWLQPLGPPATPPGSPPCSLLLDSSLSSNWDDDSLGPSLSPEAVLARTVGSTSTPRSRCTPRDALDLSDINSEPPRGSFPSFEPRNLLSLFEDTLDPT
Procedure: Inhibition of PKMYT1 kinase activity by test compounds was measured by the HotSpot Kinase Assay at Reaction Biology Corporation (Malvern, Pa.). Briefly, Myelin Basic Protein substrate was prepared in Reaction Buffer (20 mM Hepes (pH 7.5), 10 mM MgCl2, 1 mM EGTA, 0.01% Brij35, 0.02 mg/mL BSA, 0.1 mM Na3VO4, 2 mM DTT, 1% DMSO). PKMYT1 kinase was delivered into the substrate solution and gently mixed. Test compounds in 100% DMSO were added into the kinase reaction mixture by Acoustic technology (Echo550; nanoliter range) and incubated for 20 min at room temperature. ^33P-ATP was delivered into the reaction mixture to initiate the reaction. Reactions were carried out at 10 μM ATP. After a 2 hour incubation at room temperature, kinase activity was detected by P81 filter-binding method. […] A nonlinear regression model with a sigmoidal dose response and variable slope within GraphPad Prism (GraphPad Software, San Diego, Calif.) was used to calculate the IC50 value of individual test compounds.

[1] = tested on: phospho-CDC2 in A427 cells; assay: Phospho-CDC2 (Tyr15) sandwich ELISA in A427 cells; type: cell-based; conditions: Homo sapiens, A-427
Procedure: (§1) Changes in the levels of phospho-CDC2 following treatment of cells with test compounds were assessed by enzyme-linked immunosorbent assay (ELISA). A427 cells or AsPC-1 cells were plated in 6-well plates and cultured for 24 hr to approximately 80-90% confluency. Medium was replaced, and the cells were treated with the vehicle control or the test compound at several different concentrations. After incubation of treated cells in cell culture conditions for a specified time (e.g., 24 hr), cells were rinsed with ice-cold PBS and lysed in 1× cell lysis buffer containing protease inhibitors and phosphatase inhibitors. The cells were scraped from the plate with a cell scraper after a brief incubation on ice and transferred to a centrifuge tube, and then subjected to three freeze-thaw cycles in liquid nitrogen and a 37° C. water bath for further lysis. The lysates were centrifuged to pellet cell debris (using, for example, a 10 min centrifugation of 2000× g at 4° C.) and the supernatants transferred to fresh tubes on ice. The protein concentrations of the samples were estimated by the Bradford method or equivalent. The ELISA was carried out with the PathScan® Phospho-CDC2 (Tyr15) Sandwich ELISA Kit (Cat. #7176, Cell Signaling Technology, Danvers, Mass.) according to the manufacturer's instructions.

WEE1 kinase enzyme = WEE1 kinase enzyme (Homo sapiens (Human), UniProt P30291); assay: WEE1 IC50 determination, LanthaScreen Terbium Labeled TR-FRET kinase assay; type: biochemical; conditions: WEE1 enzyme 1 nM, ATP 10 μM
WEE1 kinase enzyme, sequence (P30291 whole entry): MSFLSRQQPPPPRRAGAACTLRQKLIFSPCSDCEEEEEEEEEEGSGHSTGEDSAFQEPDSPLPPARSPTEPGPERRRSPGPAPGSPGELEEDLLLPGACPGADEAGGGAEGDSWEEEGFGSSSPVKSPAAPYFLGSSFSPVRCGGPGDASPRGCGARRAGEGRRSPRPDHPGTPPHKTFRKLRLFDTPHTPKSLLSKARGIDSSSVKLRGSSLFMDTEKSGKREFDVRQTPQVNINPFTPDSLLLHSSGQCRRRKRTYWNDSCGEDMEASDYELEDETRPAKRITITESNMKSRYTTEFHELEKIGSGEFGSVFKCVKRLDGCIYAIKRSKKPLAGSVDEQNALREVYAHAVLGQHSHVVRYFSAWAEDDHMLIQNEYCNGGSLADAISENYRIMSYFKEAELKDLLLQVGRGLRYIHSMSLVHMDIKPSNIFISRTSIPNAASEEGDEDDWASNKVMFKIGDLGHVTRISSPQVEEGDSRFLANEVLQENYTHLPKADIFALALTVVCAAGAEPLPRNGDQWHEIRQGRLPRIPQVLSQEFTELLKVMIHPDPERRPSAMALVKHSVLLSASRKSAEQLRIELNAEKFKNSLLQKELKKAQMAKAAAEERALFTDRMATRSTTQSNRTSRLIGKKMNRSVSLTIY
Procedure: IC50 values of compounds against WEE1 kinase enzyme were determined by LanthaScreen™ Terbium Labeled TR-FRET assay. Kinase assays were performed in 1X kinase buffer (#PV6135, Invitrogen, Life Technologies Grand Island, N.Y.) where total reaction volume was 10 μL in low-volume 384-well plates (#4511, Corning). Serially diluted compounds (3-fold) were incubated with WEE1 Enzyme (1 nM) (#PR7373A, Invitrogen, Life Technologies, Grand Island, N.Y.) for 10 min; a mixture of ATP (10 μM) (#A1852, Sigma, St. Louis, Mo.) and fluorescent-PolyGT substrate (200 nM) (#PV3610, Invitrogen, Life Technologies Grand Island, N.Y.) was added and incubated in dark at room temperature for 1 h. After 1 h, 10 μL stop solution containing Terbium labeled antibody (4 nM) (#PV3529, Invitrogen, Life Technologies Grand Island, N.Y.) and EDTA (#E5134, Sigma, St. Louis, Mo.) (20 mM) in TR-FRET dilution buffer (#PV3574, Invitrogen, Life Technologies Grand Island, N.Y.) was added. Readings were taken in a Synergy Neo Plate reader (BioTek, Winooski, Vt.) at single excitation of 340 nm and dual emission at 495 nm and 520 nm respectively.
The % activity of test samples was calculated as (Sample−Min)*100/(Max−Min). [Max: DMSO control, complete reaction with enzyme & DMSO and Min: No enzyme & DMSO].

[2] = tested on: phospho-CDC2 in AsPC-1 cells; assay: Phospho-CDC2 (Tyr15) sandwich ELISA in AsPC-1 cells; type: cell-based; conditions: Homo sapiens, ASPC1
Procedure: as §1

pIC50 (PKMYT1 kinase) | pIC50 [1] | pIC50 (WEE1 kinase enzyme) | pIC50 [2] | SMILES | pIC50 (A427 cells)
6.65 | 6.75 | 8.40 | – | CCn1c(=O)c2cnc(Nc3ccc4c(c3)CNCC4)nc2n1-c1cccc(C2(C#N)CC2)n1 [1.38, 1-(6-(2-ethyl-3-oxo-6-((1,2,3,4-tetrahydroisoquinolin-7-yl)amino)-2,3-dihydro-1H-pyrazolo[3,4-d]pyrimidin-1-yl)pyridin-2-yl)cyclopropane-1-carbonitrile] | 6.40
5.25 | 6.49 | 8.05 | – | CC(C)n1c(=O)c2cnc(Nc3ccc4c(c3)CCNC4)nc2n1-c1cccc(C2(C#N)CC2)n1 [1.43, 1-(6-(2-isopropyl-3-oxo-6-((1,2,3,4-tetrahydroisoquinolin-6-yl)amino)-2,3-dihydro-1H-pyrazolo[3,4-d]pyrimidin-1-yl)pyridin-2-yl)cyclopropane-1-carbonitrile] | 5.83
4.95 | – | 7.89 | – | CC(C)n1c(=O)c2cnc(Nc3ccc4c(c3)CCNC4)nc2n1-c1nc(C(C)(C)C#N)ccc1F [1.321, 2-(5-fluoro-6-(2-isopropyl-3-oxo-6-(1,2,3,4-tetrahydroisoquinolin-6-ylamino)-2,3-dihydro-1H-pyrazolo[3,4-d]pyrimidin-1-yl)pyridin-2-yl)-2-methylpropanenitrile] | 5.45
4.70 | – | 6.42 | – | CC(C)n1c(=O)c2cnc(Nc3ccc4c(c3)CNCC4)nc2n1-c1nc(C(C)(C)C)c(Cl)s1 [1.349, 1-(4-(tert-butyl)-5-chlorothiazol-2-yl)-2-isopropyl-6-((1,2,3,4-tetrahydroisoquinolin-7-yl)amino)-1,2-dihydro-3H-pyrazolo[3,4-d]pyrimidin-3-one] | 6.31

The remaining lines, values behind:

SMILES | pIC50 (PKMYT1 kinase) | pIC50 [1] | pIC50 (WEE1 kinase enzyme) | pIC50 [2] | pIC50 (A427 cells)
CC(C)n1c(=O)c2cnc(Nc3ccc4c(c3)CCNC4)nc2n1-c1ccc(F)c(C(C)(C)F)n1 [1.1, 1-(5-fluoro-6-(2-fluoropropan-2-yl)pyridin-2-yl)-2-isopropyl-6-((1,2,3,4-tetrahydroisoquinolin-6-yl)amino)-1,2-dihydro-3H-pyrazolo[3,4-d]pyrimidin-3-one] | 5.18 | 6.47 | 8.22 | – | 5.43
CC(C)(F)c1nc(-n2c3nc(Nc4ccc5c(c4)CCNC5)ncc3c(=O)n2C2CC2)ccc1F [1.2, 2-cyclopropyl-1-(5-fluoro-6-(2-fluoropropan-2-yl)pyridin-2-yl)-6-((1,2,3,4-tetrahydroisoquinolin-6-yl)amino)-1,2-dihydro-3H-pyrazolo[3,4-d]pyrimidin-3-one] | 4.99 | 6.02 | 7.44 | – | 5.47
CC(C)n1c(=O)c2cnc(Nc3ccc4c(c3)CCNC4(C)C)nc2n1-c1cccc(C2(C#N)CC2)n1 [1.45, 1-(6-(6-(1,1-dimethyl-1,2,3,4-tetrahydroisoquinolin-6-ylamino)-2-isopropyl-3-oxo-2,3-dihydro-1H-pyrazolo[3,4-d]pyrimidin-1-yl)pyridin-2-yl)cyclopropanecarbonitrile] | 5.81 | 7.18 | 8.00 | 6.55 | 5.66
CC(C)n1c(=O)c2cnc(Nc3ccc4c(c3)CCNC4)nc2n1-c1ccc(F)c(C(C)(C)O)n1 [1.249, 1-(5-fluoro-6-(2-hydroxypropan-2-yl)pyridin-2-yl)-2-isopropyl-6-((1,2,3,4-tetrahydroisoquinolin-6-yl)amino)-1,2-dihydro-3H-pyrazolo[3,4-d]pyrimidin-3-one] | 4.70 | 6.64 | 7.80 | – | 6.23
CC(C)n1c(=O)c2cnc(Nc3ccc4c(c3)CCNC4)nc2n1-c1csc(C2CC2)n1 [1.464, 1-(2-cyclopropylthiazol-4-yl)-2-isopropyl-6-((1,2,3,4-tetrahydroisoquinolin-6-yl)amino)-1,2-dihydro-3H-pyrazolo[3,4-d]pyrimidin-3-one] | 4.54 | – | 7.31 | – | 4.61
CC(C)n1c(=O)c2cnc(Nc3ccc4c(c3)CNCC4)nc2n1-c1csc(C2CC2)n1 [1.465, 1-(2-cyclopropylthiazol-4-yl)-2-isopropyl-6-((1,2,3,4-tetrahydroisoquinolin-7-yl)amino)-1,2-dihydro-3H-pyrazolo[3,4-d]pyrimidin-3-one] | < 4.52 | – | 7.35 | – | < 4.52
